Data from US20230021483A1, “[…] […] METHOD AND CLASSIFICATION OF PHARMACEUTICAL COMPONENTS BY USING TRANSCRIPTOMES” (National Institutes of Biomedical Innovation, Health and …, priority 2016, published 2023).

Experiments:
[1] = test system: adjuvant-associated biological themes in LV, SP, LN
In short: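 Per-mouse whole-organ transcriptomes; genes with eij/ei(c)>2.0 tested for theme enrichment via TargetMine (GO, KEGG, Reactome, others), Fisher's exact test, Holm-Bonferroni correction. Themes shared by all three mice kept at p<0.05, using the smallest p. Score per adjuvant-associated term = Σ−log(p) of matching themes.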

liver (LV) = test: Whole organ transcriptome (GeneChip microarray) of liver 6 h after adjuvant administration: sDEGs, hierarchical clustering; type: in vivo, C57BL/6 mice; settings: liver; for adjuvant group (cluster) in LV: key: G1 (interferon signaling); G2 (metabolism of lipids and lipoproteins); G3 (response to stress); G4 (response to wounding); G5 (phosphate-containing compound metabolic process); G6 (phagosome)

## heptanoyl-γ-D-glutamyl-(L)-meso-diaminopimelyl-(D)-alanine [FK565]
[1]; LV, ID
  IFN alpha, GO annotation line 1 of 5: 4.54
  IFN alpha, GO annotation line 2 of 5: 0
  IFN alpha: cellular response to interferon-alpha: 0
  IFN alpha: positive regulation of interferon-alpha production: 0
  IFN alpha: regulation of interferon-alpha production: 0
  IFN beta: cellular response to interferon-beta: 9.65
  IFN beta: interferon-beta production: 0
  IFN beta: positive regulation of interferon-beta production: 0
  IFN beta: regulation of interferon-beta production: 0
  IFN beta: response to interferon-beta: 17.3
  IFN gamma: cellular response to interferon-gamma: 0
  IFN gamma: interferon-gamma production: 0
  IFN gamma: regulation of interferon-gamma production: 0
  IFN gamma: response to interferon-gamma: 11
  NF-kappa B signaling pathway, GO annotation line 1 of 4: 19.8
  NF-kappa B signaling pathway, GO annotation line 3 of 4: 3.05
  NF-kappa B signaling pathway, GO annotation line 4 of 4: 5.82
  TNF signaling pathway: 30.9
  adaptive immune response, GO annotation line 1 of 5: 8.99
  adaptive immune response, GO annotation line 2 of 5: 8.71
  adaptive immune response, GO annotation line 3 of 5: 3.56
  adaptive immune response, GO annotation line 4 of 5: 0
  adaptive immune response, GO annotation line 5 of 5: 0
  apoptosis, GO annotation line 1 of 8: 15.2
  apoptosis, GO annotation line 2 of 8: 13
  apoptosis, GO annotation line 3 of 8: 19.9
  apoptosis, GO annotation line 4 of 8: 13.9
  apoptosis, GO annotation line 5 of 8: 6.58
  apoptosis, GO annotation line 6 of 8: 13.2
  apoptosis, GO annotation line 7 of 8: 0
  apoptosis, GO annotation line 8 of 8: 8.33
  cell death, GO annotation line 1 of 9: 21.7
  cell death, GO annotation line 2 of 9: 16.4
  cell death, GO annotation line 3 of 9: 15.7
  cell death, GO annotation line 4 of 9: 14
  cell death, GO annotation line 5 of 9: 12.9
  cell death, GO annotation line 6 of 9: 7.1
  cell death, GO annotation line 7 of 9: 7.29
  cell death, GO annotation line 8 of 9: 0
  cell death, GO annotation line 9 of 9: 0
  chemokine, GO annotation line 1 of 4: 0
  chemokine, GO annotation line 2 of 4: 0
  chemokine, GO annotation line 3 of 4: 0
  chemokine, GO annotation line 4 of 4: 0
  chemotaxis, GO annotation line 1 of 11: 16.1
  chemotaxis, GO annotation line 2 of 11: 0
  chemotaxis, GO annotation line 4 of 11: 5.48
  chemotaxis, GO annotation line 5 of 11: 0
  chemotaxis, GO annotation line 6 of 11: 5.83
  chemotaxis, GO annotation line 7 of 11: 6.49
  chemotaxis, GO annotation line 8 of 11: 0
  chemotaxis, GO annotation line 9 of 11: 0
  chemotaxis, GO annotation line 10 of 11: 0
  chemotaxis, GO annotation line 11 of 11: 0
  cytokine, GO annotation line 1 of 17: 37.8
  cytokine, GO annotation line 2 of 17: 32.6
  cytokine, GO annotation line 3 of 17: 23.6
  cytokine, GO annotation line 4 of 17: 17.1
  cytokine, GO annotation line 5 of 17: 30.2
  cytokine, GO annotation line 6 of 17: 27.5
  cytokine, GO annotation line 7 of 17: 8.69
  cytokine, GO annotation line 8 of 17: 16.2
  cytokine, GO annotation line 9 of 17: 17
  cytokine, GO annotation line 10 of 17: 18.6
  cytokine, GO annotation line 11 of 17: 3.46
  cytokine, GO annotation line 12 of 17: 14
  cytokine, GO annotation line 13 of 17: 7.57
  cytokine, GO annotation line 14 of 17: 7.13
  cytokine, GO annotation line 15 of 17: 10.1
  cytokine, GO annotation line 16 of 17: 0
  cytokine, GO annotation line 17 of 17: 0
  defense response, GO annotation line 1 of 11: 57.8
  defense response, GO annotation line 2 of 11: 29.6
  defense response, GO annotation line 3 of 11: 24.9
  defense response, GO annotation line 4 of 11: 18.4
  defense response, GO annotation line 5 of 11: 5.98
  defense response, GO annotation line 6 of 11: 6.22
  defense response, GO annotation line 7 of 11: 0
  defense response, GO annotation line 8 of 11: 0
  defense response, GO annotation line 9 of 11: 0
  defense response, GO annotation line 10 of 11: 0
  defense response, GO annotation line 11 of 11: 0
  immune response, GO annotation line 1 of 8: 46.1
  immune response, GO annotation line 2 of 8: 20.8
  immune response, GO annotation line 3 of 8: 19.5
  immune response, GO annotation line 4 of 8: 11.9
  immune response, GO annotation line 5 of 8: 9.97
  immune response, GO annotation line 6 of 8: 12.1
  immune response, GO annotation line 7 of 8: 0
  immune response, GO annotation line 8 of 8: 0
  inflammatory response, GO annotation line 1 of 5: 29.8
  inflammatory response, GO annotation line 2 of 5: 11.4
  inflammatory response, GO annotation line 3 of 5: 3.69
  inflammatory response, GO annotation line 4 of 5: 0
  inflammatory response, GO annotation line 5 of 5: 0
  innate immune response, GO annotation line 1 of 6: 33.7
  innate immune response, GO annotation line 2 of 6: 19.7
  innate immune response, GO annotation line 3 of 6: 16.7
  innate immune response, GO annotation line 4 of 6: 16.2
  innate immune response, GO annotation line 5 of 6: 14.3
  innate immune response, GO annotation line 6 of 6: 0
  interleukin-6: interleukin-6 production: 3.6
  interleukin-6: positive regulation of interleukin-6 production: 0
  interleukin-6: regulation of interleukin-6 production: 4.17
  interleukin-12: interleukin-12 production: 8.76
  interleukin-12: positive regulation of interleukin-12 production: 3.24
  interleukin-12: regulation of interleukin-12 production: 9.49
  migration, GO annotation line 1 of 10: 13.6
  migration, GO annotation line 2 of 10: 8.98
  migration, GO annotation line 3 of 10: 14.2
  migration, GO annotation line 4 of 10: 7.86
  migration, GO annotation line 5 of 10: 7.57
  migration, GO annotation line 6 of 10: 6.55
  migration, GO annotation line 7 of 10: 6.19
  migration, GO annotation line 8 of 10: 4.49
  migration, GO annotation line 9 of 10: 0
  migration, GO annotation line 10 of 10: 0
  stress, GO annotation line 1 of 3: 57.7
  stress, GO annotation line 2 of 3: 28.5
  stress, GO annotation line 3 of 3: 9.02
  wounding, GO annotation line 1 of 3: 12.1
  wounding, GO annotation line 2 of 3: 12.8
  wounding, GO annotation line 3 of 3: 9.45
[1]; mouse, in vivo
  NF-kappa B signaling pathway, GO annotation line 2 of 4: 12.9
  chemotaxis, GO annotation line 3 of 11: 15.7
Liver (LV); hierarchical clustering
  adjuvant group (cluster) in LV: G3
Liver (LV); i.d. administration, fold change <0.667, p<0.01, customized PA call=1, 6 h after adjuvant
  Number of gene probes with statistically significant changes (sDEGs), LV, Down: 1972
Liver (LV); i.d. administration, fold change >1.5, p<0.01, customized PA call=1, 6 h after adjuvant
  Number of gene probes with statistically significant changes (sDEGs), LV, Up: 2094
